One may read the melting point as the temperature, or range, at which the solid turns liquid.

Where a name gives a salt, the structure may show the parent alone.

`CN(CC(N)=O)c1nccc(-c2ccc(C(=O)NCCc3ccc4[nH]cc(C(=N)N)c4c3)cc2)n1` (as salt: salt) [Example 1aaak, N-[2-(3-Carbamimidoyl-1H-indol-5-yl)-ethyl]-4-[2-(carbamoylmethyl-N-methylamino)-pyrimidin-4-yl]benzamide]: the melting point fell in the range of 96 to 98 °C. Compound `CN(C)CCOc1nccc(-c2ccc(C(=O)NCCc3ccc4[nH]cc(C(=N)N)c4c3)cc2)n1` [Example 1aaaar, N-[2-(3-Carbamimidoyl-1H-indol-5-yl)ethyl]-4-[2-(2-dimethylaminoethoxy)pyrimidin-4-yl]benzamide] yielded a melting point of 106 to 107 °C. For `CN(CCO)c1nccc(-c2ccc(C(=O)NCCc3ccc4[nH]cc(C(=N)N)c4c3)cc2)n1` (as salt: salt) [Example 1aaav, N-[2-(3-Carbamimidoyl-1H-indol-5-yl)ethyl]-4-{2-[(2-hydroxy-ethyl)-N-methylamino]pyrimidin-4-yl}benzamide], the melting point is 97 to 100 °C. For `N=C(N)c1c[nH]c2ccc(CCNC(=O)c3ccc(-c4ccnc(NCCCCCCN5CCOCC5)n4)cc3)cc12` [Example 1aaaq, N-[2-(3-Carbamimidoyl-1H-indol-5-yl)ethyl]-4-[2-(6-morpholin-4-ylhexylamino)pyrimidin-4-yl]benzamide] the value was 129 to 130 °C. For `N=C(N)c1c[nH]c2ccc(CCNC(=O)c3ccc(-c4ccnc(N5CCCC5C(N)=O)n4)cc3)cc12` (stereo not drawn) (as salt: salt) [Example 1aaau, 1-(4-{4-[2-(3-Carbamimidoyl-1H-indol-5-yl)ethylcarbamoyl]phenyl}pyrimidin-2-yl)pyrrolidine-2-carboxylic acid amide] the value was 139 to 141 °C; for `N=C(N)c1c[nH]c2ccc(CCNC(=O)c3ccc(-n4cncn4)nc3)cc12` [Example 1aa, N-(2-[3-Carbamimidoylindol-5-yl]ethyl)-6-(1,2,4)triazol-1-ylnicotinamide], 196 to 199 °C; for `N=C(N)c1c[nH]c2ccc(CCNC(=O)c3ccc(-c4ncns4)cc3)cc12` [Example 1i, N-(2-[3-Carbamimidoylindol-5-yl]ethyl)-4-(1,2,4)thiadiazol-5-ylbenzamide], 222 to 224 °C. In the case of `N=C(N)c1c[nH]c2ccc(CCNC(=O)c3ccc(-c4ccc(=O)[nH]c4)cc3)cc12` [Example 1v, N-(2-[3-carbamimidoyl-1H-indol-5-yl]ethyl)-4-(6-oxo-1,6-dihydro-pyrid-3-yl)benzamide] it was 152 to 156 °C; in that of `COCCOc1nccc(-c2ccc(C(=O)NCCc3ccc4[nH]cc(C(=N)N)c4c3)cc2)n1` (as salt: salt) [Example 1aaaal, N-[2-(3-Carbamimidoyl-1H-indol-5-yl)-ethyl]-4-[2-(2-methoxyethoxy)-pyrimidin-4-yl]benzamide], 122 to 124 °C; in that of `CN1CCN(c2nccc(-c3ccc(C(=O)NCCc4ccc5[nH]cc(C(=N)N)c5c4)cc3)n2)CC1` (as salt: salt) [Example 1aaae, N-[2-(3-Carbamimidoyl-1H-indol-5-yl)ethyl]-4-[2-(4-methylpiperazin-1-yl)pyrimidin-4-yl]benzamide], 111 to 113 °C.

In turn, `COc1ccc(-c2ccc(C(=O)NCCc3ccc4c(c3)c(C(=N)N)cn4C)cc2)cn1` [Example 1ad, N-(2-[3-Carbamimidoyl-1-methylindol-5-yl]ethyl)-4-(6-methoxypyrid-3-yl)benzamide] showed a melting point of 237 to 238 °C.

On to `CN(C)CCCOc1ccccc1-c1ccc(C(=O)NCCc2ccc3[nH]cc(C(=N)N)c3c2)cc1` [Example 1aaaav, 2′-(3-Dimethylaminopropoxy)biphenyl-4-carboxylic acid [2-(3-carbamimidoyl-1H-indol-5-yl)ethyl]amide], for which the melting point fell in the range of 76 to 78 °C. On to `N=C(N)c1c[nH]c2ccc(CCNC(=O)c3ccc(-c4ccnc(NC5CC6CCC5C6)n4)cc3)cc12` (stereo not drawn) (as salt: salt) [Example 1aaat, 4-[2-(Bicyclo[2.2.1]hept-2-ylamino)pyrimidin-4-yl]-N-[2-(3-carbamimidoyl-1H-indol-5-yl)ethyl]benzamide], for which the melting point was in the range of 152 to 155 °C.

As to `CN(C)CCCCCCOc1nccc(-c2ccc(C(=O)NCCc3ccc4[nH]cc(C(=N)N)c4c3)cc2)n1` [Example 1aaaan, N-[2-(3-Carbamimidoyl-1H-indol-5-yl)ethyl]-4-[2-(6-dimethylaminohexyloxy)pyrimidin-4-yl]benzamide], the melting point fell in the range of 82 to 84 °C. In the case of `CN(C)CCCOc1cccc(-c2ccc(C(=O)NCCc3ccc4[nH]cc(C(=N)N)c4c3)cc2)c1` [Example 1aaaaw, 3′-(3-Dimethylaminopropoxy)biphenyl-4-carboxylic acid [2-(3-carbamimidoyl-1H-indol-5-yl)ethyl]amide] it was 84 to 86 °C; in that of `N=C(N)c1c[nH]c2ccc(CCNC(=O)c3ccc(-c4ccncc4)cc3)cc12` [Example 1aaaaaaa, N-(2-[3-Carbamimidoylindol-5-yl]ethyl)-4-pyrid-4-ylbenzamide], 113 to 116 °C; in that of `N=C(N)c1c[nH]c2ccc(CCNC(=O)c3ccc(-c4ccccn4)s3)cc12` [Example 1c, 5-(Pyrid-2-yl)-thiophene-2-carboxylic acid 2-(3-carbamimidoyl-5-indolyl)ethyl amide], 198 to 200 °C. For `N=C(N)c1c[nH]c2ccc(CCNC(=O)c3ccc(-c4ccnc(NCCCCN5CCCCC5)n4)cc3)cc12` [Example 1aaan, N-[2-(3-Carbamimidoyl-1H-indol-5-yl)ethyl]-4-[2-(4-piperidin-1-ylbutylamino)pyrimidin-4-yl]benzamide] the value was 94 to 96 °C. For `N=C(N)c1c[nH]c2ccc(CCNC(=O)c3ccc(-c4ccnc(CNCCCC(=O)O)n4)cc3)cc12` (as salt: salt) [Example 1aaaf, 4-[(4-{4-[2-(3-Carbamimidoyl-1H-indol-5-yl)ethylcarbamoyl]phenyl}pyrimidin-2-yl)methylamino]butyric acid] the value was 100 to 104 °C; for `COc1ccc(-c2ccc(C(=O)NCCc3ccc4[nH]cc(C(=N)N)c4c3)cc2)cn1` [Example 1p, N-(2-[3-Carbamimidoylindol-5-yl]ethyl)-4-(6-methoxypyrid-3-yl)benzamide], 164 to 167 °C.

In turn, `N=C(N)c1c[nH]c2ccc(CCNC(=O)c3ccc(-c4ccnc(NCCCCCCN5CCCCC5)n4)cc3)cc12` [Example 1aaam, N-[2-(3-Carbamimidoyl-1H-indol-5-yl)ethyl]-4-[2-(6-piperidin-1-ylhexylamino)pyrimidin-4-yl]benzamide] came in with a melting point of 110 to 113 °C.

`CCN(CC)CCCCNc1nccc(-c2ccc(C(=O)NCCc3ccc4[nH]cc(C(=N)N)c4c3)cc2)n1` [Example 1aaap, N-[2-(3-Carbamimidoyl-1H-indol-5-yl)ethyl]-4-[2-(4-diethylaminobutylamino)pyrimidin-4-yl]benzamide]: the melting point was in the range of 73 to 76 °C. With `N=C(N)c1c[nH]c2ccc(CCNC(=O)c3ccc(-n4ccnc4)cc3)cc12` [Example 1g, N-(2-[3-Carbamimidoylindol-5-yl]ethyl)-4-imidazol-1-ylbenzamide], the melting point was in the range of 191 to 194 °C. In the case of `N=C(N)c1c[nH]c2ccc(CCNC(=O)c3ccc(-n4cccc4)nc3)cc12` [Example 1ab, N-(2-[3-Carbamimidoylindol-5-yl]ethyl)-6-pyrrol-1-ylnicotinamide] it was 213 to 214 °C.
